The source made the active and inactive calls. No cut-off for these calls is given here.
These compounds were tested on PANC-1 (assay: Cytotoxicity against nutrient-rich DMEM cultured human PANC1 cells at PC50 incubated for 24 hrs by WST-8 assay). Conditions: panc-1, 24 h.
Type: cell-based

| Compound | Activity |
| --- | --- |
| C[C@@H]1O[C@@H](O[C@H]2[C@H](Oc3c(-c4ccc(O)cc4)oc4cc(O)cc(O)c4c3=O)O[C@H](CO)[C@@H](O)[C@@H]2O)[C@H](O)[C@H](O)[C@H]1O | Non-Toxic |
| O=C(CCc1ccc(O)c(O)c1)c1ccc(O)cc1O | Non-Toxic |
| O=C(CCc1ccc(O)c(O)c1)c1ccc(O[C@@H]2O[C@H](CO)[C@@H](O)[C@H](O)[C@H]2O)cc1O | Non-Toxic |
| O=C(CCc1ccc(O)cc1)c1ccc(O)cc1O[C@@H]1O[C@H](CO)[C@@H](O)[C@H](O)[C@H]1O | Non-Toxic |
| O=C(/C(O)=C/c1ccc(O)c(O)c1)c1ccc(O[C@H]2COC(=O)[C@@H]2O)cc1O | Non-Toxic |
| CC1(C)OC[C@H]2O[C@@H](Oc3ccc(C(=O)CCc4ccc(O)cc4)c(O)c3)[C@H](O)[C@@H](O)[C@@H]2O1 | Non-Toxic |
| CC[C@H](/C=C/[C@@H](C)[C@H]1CC[C@H]2C3=CC[C@H]4C[C@@H](O)CC[C@]4(C)[C@H]3CC[C@]12C)C(C)C | Non-Toxic |
| Oc1cc(O)c2c(c1)O[C@H](c1ccc(O)c(O)c1)[C@H](O)C2 [(-)-EPICATECHIN] | Non-Toxic |
| C[C@@H]1O[C@@H](Oc2c(-c3ccc(O)cc3)oc3cc(O)cc(O)c3c2=O)[C@H](O)[C@H](O)[C@H]1O [AFZELIN] | Non-Toxic |
| COc1cc(C[C@H]2C(=O)OC[C@@H]2Cc2ccc(OC)c(OC)c2)ccc1O [ARCTIGENIN] | Non-Toxic |
| C=C(C)[C@@H]1CC[C@]2(CO)CC[C@]3(C)[C@H](CC[C@@H]4[C@@]5(C)CC[C@H](O)C(C)(C)[C@@H]5CC[C@]43C)[C@@H]12 [BETULIN] | Non-Toxic |
| O=C(/C=C/c1ccc(O)c(O)c1)c1ccc(O)cc1O [BUTEIN] | Non-Toxic |
| O=C(CCc1ccc(O)cc1)c1ccc(O[C@@H]2O[C@H](CO)[C@@H](O)[C@H](O)[C@H]2O)cc1O [CONFUSOSIDE] | Non-Toxic |
| O=c1c(O[C@@H]2O[C@H](CO)[C@@H](O)[C@H](O)[C@H]2O)c(-c2ccc(O)c(O)c2)oc2cc(O)cc(O)c12 [ISOQUERCETIN] | Non-Toxic |
| COc1cc2oc(=O)ccc2cc1O [ISOSCOPOLETIN] | Non-Toxic |
| C=C(C)[C@@H]1CC[C@]2(C)CC[C@]3(C)[C@H](CC[C@@H]4[C@@]5(C)CC[C@H](O)C(C)(C)[C@@H]5CC[C@]43C)[C@@H]12 [LUPEOL] | Non-Toxic |
| C[C@@H]1O[C@@H](OC[C@H]2O[C@@H](Oc3c(-c4ccc(O)cc4)oc4cc(O)cc(O)c4c3=O)[C@H](O)[C@@H](O)[C@@H]2O)[C@H](O)[C@H](O)[C@H]1O [NICOTIFLOROSIDE] | Non-Toxic |
| O=c1c(O)c(-c2ccc(O)c(O)c2)oc2cc(O)cc(O)c12 [QUERCETIN] | Non-Toxic |

Each compound was assayed on PANC-1 (assay: Inhibition of cell migration in human PANC1 cells assessed as open wound area at 100 uM cultured in nutrient rich DMEM medium measured after 48 hrs by quantitative real-time imaging based wound healing assay (reference value: 12%)). Conditions: not given.
Type: functional
Design: scale not given: the % may be the effect or the level left

| Compound | Activity |
| --- | --- |
| CC1(C)OC[C@H]2O[C@@H](Oc3ccc(C(=O)CCc4ccc(O)cc4)c(O)c3)[C@H](O)[C@@H](O)[C@@H]2O1 | 81% |

These compounds were tested on PANC-1 (assay: Inhibition of cell migration in human PANC1 cells assessed as closed wound area at 100 uM cultured in nutrient rich DMEM medium measured within 24 hrs by quantitative real-time imaging based wound healing assay (reference value: 100%)). Conditions: not given.
Type: functional
Design: scale not given: the % may be the effect or the level left

| Compound | Activity |
| --- | --- |
| CC1(C)OC[C@H]2O[C@@H](Oc3ccc(C(=O)CCc4ccc(O)cc4)c(O)c3)[C@H](O)[C@@H](O)[C@@H]2O1 | 38% |

The compounds below were run on PANC-1 (assay: Inhibition of cell migration in human PANC1 cells at 100 uM cultured in nutrient rich DMEM medium measured every 15 mins for 72 hrs by quantitative real-time imaging analysis). Conditions: not given.
Type: functional, cell-based

| Compound | inhibition |
| --- | --- |
| CC1(C)OC[C@H]2O[C@@H](Oc3ccc(C(=O)CCc4ccc(O)cc4)c(O)c3)[C@H](O)[C@@H](O)[C@@H]2O1 | Active |

What follows are compounds tested on PANC-1 (assay: Inhibition of cell migration in human PANC1 cells assessed as decrease in velocity of cell migration at 100 uM cultured in nutrient rich DMEM medium measured every 15 mins for 72 hrs by quantitative real-time imaging analysis). Conditions: not given.
Type: functional, cell-based

| Compound | inhibition |
| --- | --- |
| CC1(C)OC[C@H]2O[C@@H](Oc3ccc(C(=O)CCc4ccc(O)cc4)c(O)c3)[C@H](O)[C@@H](O)[C@@H]2O1 | Active |

What follows are compounds tested on PANC-1 (assay: Anti-austerity activity against nutrient-deprived human PANC1 cells assessed as cell death incubated for 24 hrs by WST-8 assay). Conditions: not given.
Type: functional

| Compound | PC50 |
| --- | --- |
| C[C@@H]1O[C@@H](O[C@H]2[C@H](Oc3c(-c4ccc(O)cc4)oc4cc(O)cc(O)c4c3=O)O[C@H](CO)[C@@H](O)[C@@H]2O)[C@H](O)[C@H](O)[C@H]1O | 17.4 µM |
| O=C(CCc1ccc(O)c(O)c1)c1ccc(O[C@@H]2O[C@H](CO)[C@@H](O)[C@H](O)[C@H]2O)cc1O | 10.4 µM |
| O=C(CCc1ccc(O)cc1)c1ccc(O)cc1O[C@@H]1O[C@H](CO)[C@@H](O)[C@H](O)[C@H]1O | >100 µM |
| O=C(/C(O)=C/c1ccc(O)c(O)c1)c1ccc(O[C@H]2COC(=O)[C@@H]2O)cc1O | >100 µM |
| CC1(C)OC[C@H]2O[C@@H](Oc3ccc(C(=O)CCc4ccc(O)cc4)c(O)c3)[C@H](O)[C@@H](O)[C@@H]2O1 | 60.9 µM |
| CC[C@H](/C=C/[C@@H](C)[C@H]1CC[C@H]2C3=CC[C@H]4C[C@@H](O)CC[C@]4(C)[C@H]3CC[C@]12C)C(C)C | 58.1 µM |
| Oc1cc(O)c2c(c1)O[C@H](c1ccc(O)c(O)c1)[C@H](O)C2 [(-)-EPICATECHIN] | 14.7 µM |
| C[C@@H]1O[C@@H](Oc2c(-c3ccc(O)cc3)oc3cc(O)cc(O)c3c2=O)[C@H](O)[C@H](O)[C@H]1O [AFZELIN] | 8.9 µM |
| COc1cc(C[C@H]2C(=O)OC[C@@H]2Cc2ccc(OC)c(OC)c2)ccc1O [ARCTIGENIN] | 0.7 µM |
| C=C(C)[C@@H]1CC[C@]2(CO)CC[C@]3(C)[C@H](CC[C@@H]4[C@@]5(C)CC[C@H](O)C(C)(C)[C@@H]5CC[C@]43C)[C@@H]12 [BETULIN] | 8.4 µM |
| O=C(/C=C/c1ccc(O)c(O)c1)c1ccc(O)cc1O [BUTEIN] | 67 µM |
| O=C(CCc1ccc(O)cc1)c1ccc(O[C@@H]2O[C@H](CO)[C@@H](O)[C@H](O)[C@H]2O)cc1O [CONFUSOSIDE] | 82.6 µM |
| O=c1c(O[C@@H]2O[C@H](CO)[C@@H](O)[C@H](O)[C@H]2O)c(-c2ccc(O)c(O)c2)oc2cc(O)cc(O)c12 [ISOQUERCETIN] | >100 µM |
| COc1cc2oc(=O)ccc2cc1O [ISOSCOPOLETIN] | 26.9 µM |
| C=C(C)[C@@H]1CC[C@]2(C)CC[C@]3(C)[C@H](CC[C@@H]4[C@@]5(C)CC[C@H](O)C(C)(C)[C@@H]5CC[C@]43C)[C@@H]12 [LUPEOL] | 38.6 µM |
| C[C@@H]1O[C@@H](OC[C@H]2O[C@@H](Oc3c(-c4ccc(O)cc4)oc4cc(O)cc(O)c4c3=O)[C@H](O)[C@@H](O)[C@@H]2O)[C@H](O)[C@H](O)[C@H]1O [NICOTIFLOROSIDE] | 67.1 µM |
| O=c1c(O)c(-c2ccc(O)c(O)c2)oc2cc(O)cc(O)c12 [QUERCETIN] | 21.8 µM |

What follows are compounds tested on PANC-1 (assay: Inhibition of cell migration in human PANC1 cells assessed as open wound area at 100 uM cultured in nutrient rich DMEM medium measured after 72 hrs by quantitative real-time imaging based wound healing assay (reference value: 5%)). Conditions: not given.
Type: functional
Design: scale not given: the % may be the effect or the level left

| Compound | Activity |
| --- | --- |
| CC1(C)OC[C@H]2O[C@@H](Oc3ccc(C(=O)CCc4ccc(O)cc4)c(O)c3)[C@H](O)[C@@H](O)[C@@H]2O1 | 72% |

What follows are compounds tested on PANC-1 (assay: Inhibition of cell migration in human PANC1 cells assessed as open wound area at 100 uM cultured in nutrient rich DMEM medium measured after 24 hrs by quantitative real-time imaging based wound healing assay relative to control). Conditions: not given.
Type: functional
Design: scale not given: the % may be the effect or the level left

| Compound | Activity |
| --- | --- |
| CC1(C)OC[C@H]2O[C@@H](Oc3ccc(C(=O)CCc4ccc(O)cc4)c(O)c3)[C@H](O)[C@@H](O)[C@@H]2O1 | 93% |
